Values quoted from earlier work, collected in patent publication US12616197B2, “Three-dimensional printing” (PERIDOT PRINT LLC, priority 2021, dated 2026).
In brackets after ≈: the same amount, converted by molar mass. Like-named read-outs stand apart in the source and are kept apart here.

Compound	solubility in water (water)	further results
Cc1cc2nc3c(=O)[nH]c(=O)nc-3n(C[C@H](O)[C@H](O)[C@H](O)CO)c2cc1C [riboflavin]		solubility in water (water, depending on the crystal structure): 1000 mg/3,000-15,000 mL
cyanocobalamin	1000 mg/80 mL	
Cc1ncc(CO)c(CO)c1O.Cl [pyridoxine hydrochloride]		solubility in water: 200 mg/mL
Cc1ncc(CO)c(CN)c1O [pyridoxamine]	29 mg/mL (≈ 172 mM)	
